Experimental findings from ChEMBL document CHEMBL1828586 (J Med Chem, 2011) are described below.

The structures appear in SMILES notation.

What all share (format): functional, cell-based
Test [1] can be described thus: Anticancer activity against mouse B16-F1 cells after 96 hrs by SRB assay. Particulars: B16-F1, 96 h. For orientation: The SRB assay estimates cell density from bound dye.
The subject of another test is A-375. Kind of test: Anticancer activity against human A375 cells after 96 hrs by SRB assay. The following applies: A-375, 96 h.
Another test concerns DU-145. The experiment in a line: Anticancer activity against human DU145 cells after 96 hrs by SRB assay. Particulars: DU-145, 96 h.
A further test deals with PC-3. The experiment in a line: Anticancer activity against human PC3 cells after 96 hrs by SRB assay. Particulars: PC-3, 96 h.
Another test has as its system LNCaP. Kind of test: Anticancer activity against human LNCAP cells after 96 hrs by SRB assay.
For the next test, the system named is PPC-1. The experiment in a line: Anticancer activity against human PPC1 cells after 96 hrs by SRB assay. The following applies: PPC-1, 96 h.
Test [2] can be described thus: Anticancer activity against human WM164 cells after 96 hrs by SRB assay. Particulars: WM164, 96 h.

Consider `COc1cc(S(=O)(=O)c2cccc(-c3ccccc3)c2)cc(OC)c1OC`, for which the IC50 (in test [1]; in the test on A-375; in the test with DU-145; with PC-3; in the test with LNCaP; in the test with PPC-1) was over 10 µM in each case. The same molecule had an IC50 in test [2] of over 10 µM.
Take `COc1cc(Sc2cccc(-c3ccccc3)c2)cc(OC)c1OC`: the IC50 was 2.4 µM in test [1]; 1.6 µM with A-375; over 10 µM in the test with DU-145; over 10 µM with PC-3; 2.3 µM in the test with LNCaP; 2.3 µM in the test with PPC-1. The molecule also came in with an IC50 in test [2] of 2 µM.
`COc1cc(C(=O)c2cccc(-c3ccccc3)c2)cc(OC)c1OC`: the IC50 was found to be 0.5 µM in test [1]; 0.087 µM with A-375; 0.171 µM in the test on DU-145; 0.124 µM in the test on PC-3; 0.052 µM with LNCaP; 0.08 µM in the test with PPC-1.
On to `COc1cc(C(=O)c2csc(-c3ccc(O)cc3)n2)cc(OC)c1OC`, for which the IC50 is 0.11 µM in test [1]; 0.1 µM in the test with A-375; 0.116 µM in the test on DU-145; 0.087 µM in the test with PC-3; 0.103 µM in the test on LNCaP; 0.076 µM in the test on PPC-1.
Regarding `COc1cc(C(=O)c2csc(-c3ccc(CN(C)C)cc3)n2)cc(OC)c1OC`, the IC50 in test [1] was over 10 µM; with A-375, over 10 µM; in the test on DU-145 it was over 10 µM; with PC-3 it was over 10 µM; in the test with LNCaP it was 1.02 µM; in the test on PPC-1, over 10 µM.
Regarding `COc1cc(/C(=N/O)c2csc(-c3ccccc3)n2)cc(OC)c1OC`, the concentration for half-maximal inhibition (IC50) in test [1] was found to be 0.3 µM; in the test on A-375, 0.2 µM; in the test on DU-145 it was 0.103 µM; with PC-3, 0.12 µM; in the test with LNCaP, 0.169 µM; in the test on PPC-1 it was 0.144 µM.
For `CNCc1ccc(-c2nc(C(=O)c3cc(OC)c(OC)c(OC)c3)cs2)cc1`, the concentration for half-maximal inhibition (IC50) in test [1] is over 10 µM; in the test on A-375, over 10 µM; with DU-145, 10 µM; in the test on PC-3, over 10 µM; in the test on LNCaP, 1.14 µM; in the test on PPC-1, 10 µM.
As to `COc1cc(C(=O)c2ccc(-c3ccccc3)o2)cc(OC)c1OC`, the IC50 in test [1] came out at 0.151 µM; in the test on A-375 it was 0.027 µM; in the test with DU-145, 0.035 µM; with PC-3, 0.021 µM; in the test on LNCaP, 0.023 µM; in the test on PPC-1 it was 0.02 µM.
Consider `COc1cc(C(=O)c2cc(-c3ccccc3)on2)cc(OC)c1OC`, for which the IC50 is over 30 µM in test [1]; over 30 µM with A-375; over 10 µM in the test on DU-145; over 10 µM in the test on PC-3; over 10 µM in the test on LNCaP; over 10 µM in the test with PPC-1.
As to `COc1cc(C(=O)c2csc(-c3cc4ccccc4[nH]3)n2)cc(OC)c1OC`, the IC50 in test [1] was 0.043 µM; with A-375, 0.019 µM; in the test with DU-145, 0.032 µM; in the test with PC-3, 0.024 µM; in the test with LNCaP it was 0.028 µM; in the test on PPC-1, 0.028 µM.
`COc1cc(C(=O)Nc2csc(-c3ccccc3)n2)cc(OC)c1OC`: the IC50 in test [1] is over 30 µM; with A-375, over 30 µM; in the test with DU-145, over 10 µM; in the test on PC-3, over 10 µM; in the test on LNCaP, over 10 µM; with PPC-1, over 10 µM.
With `COc1cc(C(=O)c2coc(-c3ccccc3)n2)cc(OC)c1OC`, the IC50 in test [1] worked out at 0.6 µM; with A-375 it was 0.3 µM; with DU-145, 0.292 µM; with PC-3, 0.292 µM; in the test on LNCaP, 0.331 µM; in the test on PPC-1 it was 0.343 µM.
With `COc1cc(-c2csc(-c3ccccc3)n2)cc(OC)c1OC`, the IC50 (in test [1]; in the test with A-375; with DU-145; in the test with PC-3; in the test on LNCaP; in the test on PPC-1) was over 10 µM in each case. The IC50 in test [2] was over 10 µM.
For the molecule `COc1cc(C(=O)c2csc(Nc3ccc(C)cc3)n2)cc(OC)c1OC`, the IC50 was determined as 0.035 µM in the test on DU-145, 0.038 µM in the test on PC-3, 0.035 µM with LNCaP and 0.036 µM with PPC-1.
Regarding `COc1cc(NS(=O)(=O)c2cccc(-c3ccccc3)c2)cc(OC)c1OC`, the IC50 (in test [1]; with A-375; in the test with DU-145; in the test with PC-3; in the test with LNCaP; in the test on PPC-1) was over 10 µM each time. This molecule returned an IC50 in test [2] of over 10 µM.
With `COc1cc(/C(=N/N)c2csc(-c3ccccc3)n2)cc(OC)c1OC`, the IC50 in test [1] came out at 2 µM; in the test on A-375 it was 0.9 µM; in the test with DU-145 it was 1.21 µM; with PC-3 it was 1.12 µM; in the test on LNCaP, 1.8 µM; in the test with PPC-1, 0.872 µM.
For the molecule `COc1cc(C(=O)c2cc(-c3ccccc3)n[nH]2)cc(OC)c1OC`, the half-maximal inhibitory concentration (IC50) is 0.245 µM in test [1]; 0.1 µM in the test on A-375; 0.145 µM with DU-145; 0.101 µM in the test on PC-3; 0.101 µM with LNCaP; 0.084 µM in the test on PPC-1.
For the molecule `COc1cc(C(=O)N2CCC(c3ccccc3)CC2)cc(OC)c1OC`, the IC50 in test [1] was over 30 µM; in the test on A-375, over 30 µM; in the test on DU-145 it was over 20 µM; in the test with PC-3, over 20 µM; in the test with LNCaP, over 20 µM; in the test with PPC-1 it was over 20 µM.
As for `COc1cc(C(=O)c2csc(-c3ccc(CNC(=O)OC(C)(C)C)cc3)n2)cc(OC)c1OC`, the IC50 in test [1] came out at 2.9 µM; with A-375 it was 7.9 µM; with DU-145, 4.3 µM; in the test on PC-3 it was 3.1 µM; with LNCaP it was 2.6 µM; in the test on PPC-1, 2.7 µM.
Regarding `COc1cc(/C(=C\C#N)c2csc(-c3ccccc3)n2)cc(OC)c1OC`, the IC50 in test [1] stood at 1.2 µM; in the test with A-375 it was 1.2 µM; in the test on DU-145 it was 10 µM; in the test on PC-3, 10 µM; with LNCaP it was 1.99 µM; in the test on PPC-1, 10 µM. In test [2], this molecule had an IC50 of 1 µM.
For `COc1cc(C(=C(C)C)c2csc(-c3ccccc3)n2)cc(OC)c1OC`, the IC50 stood at 3.8 µM in test [1]; 1.9 µM with A-375; 2.65 µM in the test on DU-145; 2.47 µM with PC-3; 1.39 µM in the test on LNCaP; 2.04 µM with PPC-1. The same molecule showed a half-maximal inhibitory concentration (IC50) in test [2] of 3.7 µM.
With `CO/N=C(\c1cc(OC)c(OC)c(OC)c1)c1csc(-c2ccccc2)n1`, the IC50 (in test [1]; with A-375; with DU-145; with PPC-1; in test [2]) was over 10 µM throughout.
`COc1cc(NC(=O)c2csc(-c3ccccc3)n2)cc(OC)c1OC`: the IC50 is over 30 µM in test [1]; over 30 µM with A-375; over 10 µM in the test on DU-145; over 10 µM in the test on PC-3; over 10 µM in the test on LNCaP; over 10 µM with PPC-1.
On to `COc1cc(/C(=N\O)c2csc(-c3ccccc3)n2)cc(OC)c1OC`, for which the IC50 was 11.4 µM in test [1]; 7.8 µM in the test with A-375; over 10 µM in the test with DU-145; over 10 µM with PC-3; over 10 µM in the test with LNCaP; over 10 µM with PPC-1.
For `COc1cc(C(=O)c2cnc(-c3ccccc3)s2)cc(OC)c1OC`, the IC50 in test [1] was 12.5 µM; with A-375, 13.6 µM; with DU-145, over 10 µM; with PC-3, over 10 µM; in the test on LNCaP it was over 10 µM; with PPC-1, over 10 µM.
`COc1cc(C(=O)c2csc(-c3ccccc3)c2)cc(OC)c1OC`: the IC50 was 0.072 µM in test [1]; 0.015 µM in the test on A-375; 0.026 µM in the test with DU-145; 0.012 µM with PC-3; 0.015 µM in the test with PPC-1.
With `COc1cc(C(O)c2csc(-c3ccccc3)n2)cc(OC)c1OC` (configuration not stated), the IC50 is over 30 µM in test [1]; over 30 µM in the test with A-375; over 10 µM with DU-145; over 10 µM in the test with PC-3; over 10 µM in the test on LNCaP; over 10 µM with PPC-1.
On to `COc1cc([S+]([O-])c2cccc(-c3ccccc3)c2)cc(OC)c1OC` (configuration not stated), for which the IC50 (in test [1]; in the test with A-375; in the test with DU-145; in the test on PC-3; in the test with LNCaP; in the test with PPC-1) was over 10 µM each time. In addition, in test [2], the IC50 was over 10 µM.
On to `COc1cc(/C(=N\N)c2csc(-c3ccccc3)n2)cc(OC)c1OC`, for which the IC50 in test [1] turned out to be 1.8 µM; in the test on A-375 it was 0.6 µM; in the test on PC-3 it was 1.04 µM; in the test on LNCaP, 1.3 µM; in the test with PPC-1, 0.966 µM.
Regarding `COc1cc(C(=O)[C@@H]2CSC(c3ccc(O[Si](C)(C)C(C)(C)C)cc3)=N2)cc(OC)c1OC`, the IC50 in test [1] amounted to 0.5 µM; in the test with A-375, 0.7 µM; in the test on DU-145, 0.434 µM; with PC-3, 0.183 µM; with LNCaP, 0.549 µM; with PPC-1 it was 0.246 µM.
Take `COc1cc(C(=O)[C@@H]2COC(c3ccccc3)=N2)cc(OC)c1OC`: the IC50 was determined as 6.5 µM in test [1], 0.5 µM in the test on A-375 and 1.1 µM in the test on PPC-1.
Take `CO/N=C(/c1cc(OC)c(OC)c(OC)c1)c1csc(-c2ccccc2)n1`: the IC50 in test [1] was 3.8 µM; with A-375, 2.9 µM; in the test with DU-145, over 10 µM; in the test with PC-3 it was over 10 µM; in the test with LNCaP, over 10 µM; in test [2], 3.4 µM.
In the case of `COc1cc(C(=O)c2cc(-c3ccccc3)ncn2)cc(OC)c1OC`, the IC50 in test [1] is over 30 µM; in the test on A-375, over 30 µM; with DU-145, 6.9 µM; in the test on PC-3 it was 8.3 µM; with LNCaP it was 7 µM; with PPC-1, 3.7 µM.

One may read the IC50 as the concentration that gives 50% inhibition. Read a high IC50 as weaker potency in that assay.
